From patent US20230066065A1, “USE OF LOW DOSES OF HYDROXYCHLOROQUINE FOR THE TREATMENT OF LIPIN-1 DEFICIENCY” (Institut National de la Santé et de la Recherche Médicale …, priority 2020, published 2023)
Where “and” joins values, the source holds several entries; their conditions need not be identical. Identical values can stand only once. Entries after “also recorded” stand apart in the source; their conditions may differ.

How the values were obtained:
[1] = test system: patients with Lipin-1 deficiency; assay: Off open-label use phases 1 and 2 study: number of rhabdomyolysis (RM) episodes under HCQ; assay type: in vivo, human
Method: Ten patients with Lipin-1 deficiency were progressively enrolled in an off open-label use phases 1 and 2 study to assess safety, clinical, and biological effects of Hydroxychloroquine Sulfate (HCQ). The diagnosis of Lipin-1 disease was confirmed in all patients (Table 1). LPIN1 genotyping was performed by PCR analysis of DNA isolated from blood as previously described^2. The patients presented severe episodes of acute RM (1 to 6) defined as creatine kinase (CK) levels >6 000 U/L (normal<160 U/L), associated with mild viral illness, fasting, or prolonged exercise. Chronic symptoms such as muscle pain, fatigability, exercise intolerance, or more rarely cardiac feature were associated in 6 patients.
The patients were treated with oral HCQ at an initial posology of 6.5 mg/Kg/day in one intake, not exceeding 400 mg/day, with different treatment duration depending on the patient (Table 2). Tablets (200 mg) were proposed to patients over 6 years old, and soluble form to patients under 6 years old.
Efficacy and safety of HCQ in patients were assessed by clinical and biological evaluation determined at baseline before HCQ treatment and at regular intervals after initiation of HCQ treatment (every 3 to 6 months).
The clinical parameters encompassed the RM episode number and several standardized tools based on age at study start: auto evaluations assessing the muscle pain and the quality of life, 6-Minute Walk Test, 3-Minute Step Test, heart ultrasounds, and exercise tolerance test in the subgroup of subjects>6 years old^11.
The patients were treated with oral HCQ at a initial posology of 6.5 mg/Kg/day in one intake, not exceeding 400 mg/day, with different treatment duration depending on the patient (Table 2). The data were collected at the Necker Hospital (Reference Center of Metabolic diseases) during the visits: M0 (before treatment), M3 (3 months treatment), M6 then every 6 months. The efficacy outcome of the treatment was measured by clinical and biological endpoints.

[2] = Dosage of Hydroxychloroquine in blood/plasma of treated patients; assay type: in vivo, human
Method: Clinical and biological parameters were evaluated in parallel of the dosage of HCQ, performed on total blood samples with HPLC. Biological parameter consisted in measuring pro-inflammatory cytokines in plasma with […]. Physical condition included muscle pain (VAS score), quality-of-life assessment (PedsQL™ score), the distance walked during the 6-minute test, the number of steps climbed during the 3-minute test, cardiac function and sub-maximal exercise test. In vitro studies were performed on primary myoblasts from 4 patients and healthy controls. Autophagy was analyzed by measuring the ratio between LC3-II and B-actin by Western Blot. Oxidized DNA was studied by immunofluorescence staining. MtDNA levels was performed by using qPCR.
The dosage of Hydroxychloroquine was performed on total blood samples at a rate of 5 ml per assay tube, using EDTA tubes, and stored at +4° C. (dosages performed in the pharmacology/toxicology Department of the Hospital Cochin and Hospital La Pitié-Salpétrière).

[3] = test system: patients with Lipin-1 deficiency; assay: Muscle pain (VAS) and quality-of-life (PedsQL) questionnaires; assay type: in vivo, human
Excerpt: VAS questionnaire was completed by the patient and their parents for evaluating muscle pain, ranged from score 4: not painful, to 40: very painful. Two Quality-of-life assessment ([…]) adapted to the age of the patient were completed by either the patient or their parents. The score ranged from 0: very good quality of life, to 92: very bad quality of life.

[4] = test system: patients with Lipin-1 deficiency; assay: 6-Minute Walk Test and 3-Minute Step Test; assay type: in vivo, human; conditions: patients older than 6 y; versus prior treatment
Method: Muscle function was assessed by walking capacity within a 6-Minute Walk Test (6 MWT)^48,49 and by stair climbing capacity within a 3-Minute Step Test (3 MST)^50. The objectives were to walk and climb steps as far as possible for 6 and 3 minutes respectively.

[5] = test system: patients with Lipin-1 deficiency; assay: Echocardiography (LVEF); assay type: in vivo, human
Method: Echocardiography was performed using a Vivid 9 system (General Electric Vingmed Ultrasound, Horten, Norway). Transducers ([…]) were chosen based on patient size and morphology to obtain the best image resolution. Images were acquired and stored in a digital format by two experienced examiners for offline analysis using EchoPac version 112.0.1 software (General Electric Vingmed). All records were performed while the patient was in sinus rhythm under continuous monitoring via electrocardiogram. All measurements of ventricular dimensions and function were performed according to the guidelines of the American and European Societies of Echocardiography^51.
The global longitudinal strain of the left ventricle was defined as the percentage of change during myocardial deformation and was evaluated through the speckle-tracking method using EchoPac (2D strain Q analysis) version 112.0.1 (General Electric Vingmed)^11.

[6] = test system: patients with Lipin-1 deficiency; assay: Cardiopulmonary exercise test, cycle ergometer (dQ/dVO2); assay type: in vivo, human
Method: Patients≥6 years old underwent cardiopulmonary exercise tests (CPETs). CPETs were performed to assess the maximal exercise capacity using a cycle ergometer^11. The CPET data were compared with retrospectively collected data from a population of 21 paired children who required non-invasive cardiac output monitoring because of dyspnoea during exercise or chest pain and were considered healthy at the end of the examinations. Pairing was conducted according to sex and age. Oxygen uptake (VO2) and carbon dioxide output were measured breath-by-breath by an automated system (Sensor Medic, MSE). Measurements were taken at rest and every 20 s throughout exercise and recovery. The exercise test was considered maximal if the patient achieved a respiratory exchange ratio (RER)>1.1 and/or a maximal heart rate>85% of the theoretical maximal heart rate, and/or the oxygen uptake reached a plateau^11. Cardiac output (Q) and stroke volume (SV) were determined noninvasively during the exercise test using a thoracic bioelectrical impedance device (PhysioFlow, PF-05 Lab 1, Manatec Biomedical) as routinely performed in our centre. We calculated the slope of the relationship between cardiac output and oxygen utilization (dQ/dVO2) using measurements of Q and VO2 at rest as well as during submaximal and maximal exercise.

[7] = test system: patients with Lipin-1 deficiency; assay: Evaluation of the tolerance of HCQ (allergy, abdominal pain, eye fundus, retinogram); assay type: in vivo, human
[8] = test system: IL8; assay: Plasma cytokine concentration, Cytometric Bead Assay; assay type: in vivo, human; conditions: all patients tested, following vs prior treatment
Method: (§1) Cytokine concentrations were measured in plasma using a ten-plex Cytometric Bead Assay (CBA) kit from BD Biosciences, according to the manufacturer's instructions, then analyzed by flow cytometry (ARIA II; BD Biosciences) with CBA Analysis Software (FCAP Array version 3.0; Soft Flow, St Louis Park, Minn.). The results were expressed in picograms per milliliter.

[9] = test system: MCP-1; assay: as above; assay type: in vivo, human; conditions: all patients tested, following vs prior treatment
Method: as §1

[10] = test system: LC3-II in Lipin-1 deficient and control myoblasts; assay: Autophagy: LC3-II/B-actin ratio by Western Blot in primary myoblasts under immunometabolic stress (EBSS + CpG-A); assay type: cell-based, human
Method: (§2) Human primary myoblasts were isolated and grown as described^19. Briefly, CD56+ myoblasts isolated by flow cytometry cell sorting were maintained in HamF10 medium supplemented with 20% fetal calf serum on culture plates coated with 1% gelatin. To mimic RM, F10 medium was replaced by EBSS ([…]) (4 h) with TLR9 agonist CpGA (ODN2216) at the concentration of 10 μg/ml. Myoblasts were incubated with various HCQ concentrations (0.1 to 10 μM) 18 h before and during myoblasts starvation.
Autophagy measurements. Autophagy was analyzed using the LC3-II/B-actin ratio by Western Blot. The following antibodies used in this study were: mouse-anti-β-actin (sc-81178, Santa Cruz Biotechnology, western blotting (WB): 1:5000), mouse-anti-LC3B (clone 4E12, MBL International, IF: 1:100).

[11] = test system: Lipin-1 deficient myoblasts; assay: Oxidized DNA (8-OHdG) immunofluorescence staining in myoblasts under immunometabolic stress; assay type: cell-based, human
Method: as §2
Imuunofluorescence staining. Oxidized DNA on fixed cells was detected with mouse-anti-8-OHdG (sc-66036, Santa Cruz Biotechnology, IF: 1:100)^54 and analyzed by confocal fluorescence microscopy. Images were recorded on a confocal LSM 700 microscope (Zeiss), with a 63× oil immersion objective and quantification was performed by analyzing cells on the Icy software (v 1.9.5.1 BioImage Analysis unit, Institut Pasteur, France).

[12] = test system: Lipin-1 deficient myoblasts; assay: MtDNA levels by qPCR in myoblasts under immunometabolic stress; assay type: cell-based, human; conditions: myoblasts of P1, P4, P6 and P11; results need to be reproduced
Method: as §2
MtDNA levels was performed by using qPCR for the mitochondrial12S gene reported to the nuclear β-actin gene. Quantitative PCR was performed in triplicate using the Light Cycler VIIA7 System (Roche).

[13] = test system: TLR9; assay: Relative TLR9 expression in myoblasts, RT-qPCR; assay type: cell-based, human; conditions: patient and control myoblasts; EBSS + CpG-A
Excerpt: FIG. 7.(A-C) Relative TLR9 expression in Lipin-1 deficient and control myoblasts; comparison between basal condition and immunometabolic stress (A-B) and after HCQ treatment compared to immunometabolic stress (C); RT-qPCR. compared to basal condition in myoblasts. GM: growth medium; E: EBSS; C: CpG-A; HCQ: Hydroxychloroquine.
as §2

[14] = test system: primary patients myoblasts; assay type: cell-based, human
Excerpt: Then, we were interested in the dosage og HCQ in vitro in order to analyse the HCQ incorporation in primary patients myoblasts.

[15] = test system: CYP3A4/CYP2C8; conditions: cited from earlier work

## CCN(CCO)CCCC(C)Nc1ccnc2cc(Cl)ccc12.O=S(=O)(O)O (centres unmarked) [HCQ, 2-[[4-[(7-Chloro-4-quinolyl)amino]pentyl]ethylamino] ethanol sulfate (1:1)]
[1]; of 10 patients, 29 RM prior to treatment
  patients without new acute RM under treatment: Seven
[1]; patient P1
  RM after resumption of treatment: No other RM was observed
[1]; patient P1, discontinued at M9, within 6 weeks after disruption
  RM after HCQ disruption: underwent extensive RM
[1]; patient P1-P10, oral HCQ, initial 6.5 mg/Kg/day, treatment duration 12-41 months
  Number of severe RM (CPK > 10k U/L) during treatment: 0 (7×) and 1 and 3 and 4
[1]; patient P5, context of gastroenteritis
  episodes of RM despite HCQ: one
[1]; patient P6, context of gastroenteritis
  episodes of RM despite HCQ: two
[1]; patient P7
  benefit effect of HCQ: had not seem to have benefit effect
[2]; P5 and P6, who experimented RM, oral 6.5 mg/Kg/day
  plasma HCQ levels: 1000 ng/mL
[2]; patient P1-P10, oral HCQ, mean of visits
  Plasma HCQ (μg/L) mean: 107 µg/L and 724 µg/L and 627 µg/L and 1048 µg/L and 1040 µg/L and 290 µg/L and 610 µg/L and 407 µg/L and 752 µg/L and 318 µg/L
[2]; patient P1-P10, oral HCQ, median of visits
  Plasma HCQ (μg/L) (median): (107) μg/L and (854) μg/L and (597) μg/L and (955) μg/L and (1092) μg/L and (205) μg/L and (610) μg/L and (367) μg/L and (733) μg/L and 325) μg/L
[2]; patients other than P5 and P6, oral 6.5 mg/Kg/day
  Levels of HCQ measured at each visit: ~0.4 µg/mL
[3]; 2 other patients
  VAS pain score, change under treatment: no difference
[3]; 4 patients, score 4 not painful - 40 very painful, median 12.25 prior treatment
  VAS pain score, median following treatment: 7
[3]; 6 patients, 0 very good - 92 very bad, score 25 before treatment
  PedsQL quality-of-life median score under treatment: 17.1
[4]
  increase of median score in 3 MST following treatment: 31 steps
  increase of median score in 6 MWT following treatment: ~100 meters
[5]; patient P3, M3 of treatment, 45% before
  LVEF: 62%
[5]; patient P3, M6, M9, M12 following treatment
  LVEF: 63%
[5]; patient P3, after they stopped treatment
  LVEF: 55%
[6]; four patients with abnormal peripheral muscle, baseline means 7, 9.5, 9.1, 7.5
  dQ/dVO2 ratio after initiation of treatment, global mean: 5.8
[6]; patient P3 with cardiac failure, baseline mean 4
  dQ/dVO2 ratio under treatment, mean: 4.8
[7]; 12 months of treatment, all patients tested
  Electroretinogramms and eye fundus: normal
[7]; all patients
  allergy symptoms with HCQ treatment: Any allergy symptoms have been observed
[7]; overall
  tolerance of HCQ in patients: well tolerated
[7]; patients 5 and 6
  Side effects associated with HCQ: abdominal pain
[8]
  plasma level of IL8: reduced
[9]
  plasma level of MCP-1: reduced
[10]; HCQ 10 μM, control and patients myoblasts
  LC3-II accumulation (autophagy blockage) under immunometabolic stress: potentiates LC3-II accumulation
[10]; HCQ 0.1 and 1 μM
  LC3-II accumulation (autophagy blockage) under immunometabolic stress: less deleterious
[11]; HCQ 0.1 to 10 μM
  oxDNA levels in myoblasts: normalized oxDNA levels
[11]; myoblasts of P1, P4, P6 and P11, EBSS + CpG-A
  accumulation of oxDNA under immunometabolic stress: prevents this accumulation
[12]
  accumulation of mtDNA under immunometabolic stress: prevents this accumulation
[13]
  TLR9 expression under stress condition: variable effect; also recorded: could not decrease TLR9 expression
[14]
  HCQ incorporation in primary myoblasts: HCQ incorporation is effective
[15]
  share of the HCQ metabolism by CYP3A4/CYP2C8: 80%
